The source of these data is ChEMBL document CHEMBL3779880, “In silico to in vitro screening of hydroxypyridinones as acetylcholinesterase inhibitors” (Bioorg Med Chem Lett, 2016).

The target of data set [1] is Acetylcholinesterase (Electrophorus electricus) (UniProt O42275). Description: Reversible inhibition of electric eel AChE at 92 mM after 5 to 60 mins followed by addition of acetylthiocholine iodide by Ellman's method. On the technique in general: In Ellman's method for cholinesterases, released thiocholine reacts with DTNB.
Data set [2] is described as follows: Metal chelating activity assessed as Fe3+/compound complex formation incubated with electric eel AChE for 1 and 24 hrs measured over 60 mins by TLC analysis. The data set is classed as physicochemical.
Data set [3] has as its target Acetylcholinesterase (Electrophorus electricus) (UniProt O42275). The data set is described as follows: Reversible inhibition of electric eel AChE incubated for 1 and 24 hrs by ESI-MS and TLC method.
Data set [4] has as its target Acetylcholinesterase (Electrophorus electricus, UniProt O42275).
Description: Inhibition of electric eel AChE using acetylthiocholine iodide as substrate by Ellman's method
Data set [5] addresses Acetylcholinesterase (Electrophorus electricus) (UniProt O42275). The data set is described as follows: Reversible inhibition of electric eel AChE at 554 mM after 5 to 60 mins followed by addition of acetylthiocholine iodide by Ellman's method.

Usually IC50 stands for the midpoint of a concentration-inhibition curve.

The source made the active and inactive calls. The calls are words filed in the database; no cut-off is given here.

Chain of Acetylcholinesterase (Electrophorus electricus) (O42275 24-633 limits assumed): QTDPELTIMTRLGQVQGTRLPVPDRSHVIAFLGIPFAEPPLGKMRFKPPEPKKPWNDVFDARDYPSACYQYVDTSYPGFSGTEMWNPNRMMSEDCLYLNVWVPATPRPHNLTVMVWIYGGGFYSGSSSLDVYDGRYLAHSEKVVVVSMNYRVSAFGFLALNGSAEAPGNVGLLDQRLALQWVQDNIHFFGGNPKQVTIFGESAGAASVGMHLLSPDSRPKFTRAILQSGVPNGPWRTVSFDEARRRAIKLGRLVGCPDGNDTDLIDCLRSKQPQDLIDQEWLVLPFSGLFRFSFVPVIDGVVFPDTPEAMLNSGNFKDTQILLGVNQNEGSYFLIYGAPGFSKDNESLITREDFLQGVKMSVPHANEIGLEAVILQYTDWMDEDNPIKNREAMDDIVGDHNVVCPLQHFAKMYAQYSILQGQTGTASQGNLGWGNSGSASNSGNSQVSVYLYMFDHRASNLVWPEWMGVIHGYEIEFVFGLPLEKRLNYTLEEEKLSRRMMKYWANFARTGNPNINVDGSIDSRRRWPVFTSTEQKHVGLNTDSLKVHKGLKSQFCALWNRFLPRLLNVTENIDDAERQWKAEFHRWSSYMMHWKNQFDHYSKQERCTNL
Chain of Acetylcholinesterase (O42275 whole entry): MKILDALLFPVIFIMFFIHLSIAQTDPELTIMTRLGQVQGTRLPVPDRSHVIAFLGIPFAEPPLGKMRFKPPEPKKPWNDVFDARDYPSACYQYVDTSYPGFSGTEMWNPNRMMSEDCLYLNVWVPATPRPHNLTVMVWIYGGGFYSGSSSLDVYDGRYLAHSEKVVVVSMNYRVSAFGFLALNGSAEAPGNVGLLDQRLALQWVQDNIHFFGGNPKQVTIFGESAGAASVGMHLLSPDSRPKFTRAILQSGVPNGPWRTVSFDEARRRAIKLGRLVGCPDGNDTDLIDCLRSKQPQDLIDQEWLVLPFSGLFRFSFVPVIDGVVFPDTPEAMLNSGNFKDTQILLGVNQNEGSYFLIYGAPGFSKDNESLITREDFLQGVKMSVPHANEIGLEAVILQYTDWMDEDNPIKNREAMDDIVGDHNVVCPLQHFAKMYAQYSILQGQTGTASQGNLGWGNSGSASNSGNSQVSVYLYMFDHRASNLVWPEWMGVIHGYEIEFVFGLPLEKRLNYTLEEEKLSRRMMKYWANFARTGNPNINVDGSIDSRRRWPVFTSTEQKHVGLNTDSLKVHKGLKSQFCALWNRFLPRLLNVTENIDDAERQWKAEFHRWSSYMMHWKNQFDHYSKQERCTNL

On to `Cc1c(O)c(=O)ccn1-c1ccc(OC(=O)N(C)C)cc1`, for which the inhibition result in data set [1] and in data set [3] was “Active” each time. Moreover, the result in data set [2] was Active. Further, half-maximal inhibition in data set [4] (IC50) required 348 µM.
Turning to `Cc1c(OCc2ccc(OC(=O)N(C)C)cc2)c(=O)ccn1-c1ccccc1`, the inhibition result in data set [5] and in data set [3] was “Active” throughout. In data set [4], this compound came in with a concentration for half-maximal inhibition (IC50) of 217 µM.
In turn, `Cc1ccc(OC(=O)N(C)C)cc1` [P-TOLYL DIMETHYLCARBAMATE] returned a half-inhibitory concentration (IC50) in data set [4] of 1280 µM.
